Laboratory results published in PubChem BioAssay AID248 (DTP/NCI, 2004).
Where “and” joins values, the source holds several entries; their conditions need not be identical. Identical values can stand only once. Inconclusive results and toxic doses are left out. Cut-off read from the data, not from the text of the source: active = T/C of 150% or more; inactive = T/C below 125%. Peptide text beside a SMILES is read from it. * marks the point of attachment. Boc = CC(C)(C)OC(=O)*; OtBu = CC(C)(C)O*; NHNH2 = NN*

System: L1210 leukemia ip in BDF1 mice, survival T/C
Assay: NCI In Vivo Anticancer Drug Screen. Data for tumor model L1210 Leukemia (intraperitoneal) in B6D2F1 (BDF1) mice
Details: endpoint: mean survival time, higher = longer survival
Method in brief: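 Mice bearing the transplanted tumor received compound or vehicle. Survival of the treated group was divided by that of the vehicle-treated control group to give the ratio.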

[1] = dose: 50.0 mg/kg/injection, schedule: Q01DX009 (ip), vehicle: Klucel (hydroxypropylcellulose) (HPC)
[2] = dose: 100.0 mg/kg/injection, schedule: Q01DX009 (ip), vehicle: Klucel (hydroxypropylcellulose) (HPC)
[3] = dose: 100.0 mg/kg/injection, schedule: Q04DX003 (ip), vehicle: Klucel (hydroxypropylcellulose) (HPC)
[4] = dose: 100.0 mg/kg/injection, schedule: Q04DX003 (ip), vehicle: saline
[5] = dose: 200.0 mg/kg/injection, schedule: Q01DX009 (ip), vehicle: Klucel (hydroxypropylcellulose) (HPC)
[6] = dose: 200.0 mg/kg/injection, schedule: Q04DX003 (ip), vehicle: Klucel (hydroxypropylcellulose) (HPC)
[7] = dose: 200.0 mg/kg/injection, schedule: Q04DX003 (ip), vehicle: saline
[8] = dose: 400.0 mg/kg/injection, schedule: Q01DX009 (ip), vehicle: Klucel (hydroxypropylcellulose) (HPC)
[9] = dose: 400.0 mg/kg/injection, schedule: Q04DX003 (ip), vehicle: Klucel (hydroxypropylcellulose) (HPC)
[10] = dose: 400.0 mg/kg/injection, schedule: Q04DX003 (ip), vehicle: saline
[11] = dose: 100.0 mg/kg/injection, schedule: Q01DX009 (ip), vehicle: saline with Tween-80

Measured: T/C

CC(=O)C(=Cc1ccccc1)C(C)=O
inactive: [1] 97 % of control | [2] 87 % of control and 90 % of control | [3] 92 % of control | [4] 106 % of control | [5] 95 % of control | [6] 97 % of control | [7] 116 % of control | [8] 91 % of control | [9] 97 % of control | [10] 106 % of control

Cc1nn(C)c(N)c1N=O
inactive: [1] 102 % of control | [2] 98 % of control | [5] 102 % of control

CC1(C)NC(=O)N(CN2CCN(CN3C(=O)NC(C)(C)C3=O)CC2)C1=O
inactive: [4] 108 % of control | [7] 108 % of control | [10] 113 % of control

CCn1cnc2c(SC(C)C)ncnc21
inactive: dose: 16.0 mg/kg/injection, schedule: Q01DX Z (ip), vehicle: carboxymethylcellulose (CMC) 95 % of control | dose: 31.0 mg/kg/injection, schedule: Q01DX Z (ip), vehicle: carboxymethylcellulose (CMC) 101 % of control | dose: 62.0 mg/kg/injection, schedule: Q01DX Z (ip), vehicle: carboxymethylcellulose (CMC) 107 % of control

COc1ccccc1C1OCC(C)(C)CO1
inactive: [2] 90 % of control | [3] 109 % of control | [5] 95 % of control | [6] 103 % of control | [8] 92 % of control | [9] 108 % of control

CNC(=S)Nc1ccc(C)c(Cl)c1
inactive: dose: 100.0 mg/kg/injection, schedule: Q04DX002 (ip), vehicle: saline 104 % of control | dose: 200.0 mg/kg/injection, schedule: Q04DX002 (ip), vehicle: saline 108 % of control | dose: 400.0 mg/kg/injection, schedule: Q04DX002 (ip), vehicle: saline 106 % of control

NC(=O)N1Cc2ccccc2CCc2ccccc2C1
inactive: [3] 98 % of control | [9] 91 % of control

CC(C)CC(C)NCC(C)OC(=O)c1ccc(N)cc1 (stereo not given)
inactive: dose: 75.0 mg/kg/injection, schedule: Q01DX001 (ip), vehicle: other 110 % of control

COc1ccc(CN(C)C)c(C(O)c2ccccc2)c1 (stereo not given)
inactive: dose: 50.0 mg/kg/injection, schedule: Q01DX001 (ip), vehicle: carboxymethylcellulose (CMC) 101 % of control | dose: 100.0 mg/kg/injection, schedule: Q01DX001 (ip), vehicle: carboxymethylcellulose (CMC) 103 % of control | dose: 200.0 mg/kg/injection, schedule: Q01DX001 (ip), vehicle: carboxymethylcellulose (CMC) 103 % of control

CCC(C)C(NC(=O)CNC(=O)OC(C)(C)C)C(=O)NC(C(=O)NC(CCC(=O)OC(C)(C)C)C(=O)NN)C(C)C (stereo not given) (Boc-GIVE(OtBu)-NHNH2; configuration not given here)
inactive: dose: 75.0 mg/kg/injection, schedule: Q01DX001 (ip), vehicle: saline sonified 100 % of control | dose: 150.0 mg/kg/injection, schedule: Q01DX001 (ip), vehicle: saline sonified 92 % of control | dose: 300.0 mg/kg/injection, schedule: Q01DX001 (ip), vehicle: saline sonified 106 % of control

CCCCCCCCCCCCC(=O)N1CCOCC1
inactive: dose: 100.0 mg/kg/injection, schedule: Q04DX003 (ip), vehicle: saline with Tween-80 122 % of control | dose: 200.0 mg/kg/injection, schedule: Q04DX003 (ip), vehicle: saline with Tween-80 107 % of control | dose: 400.0 mg/kg/injection, schedule: Q04DX003 (ip), vehicle: saline with Tween-80 104 % of control

COC(=O)C(C)CSP(=S)(Oc1ccccc1)Oc1ccccc1 (stereo not given)
inactive: dose: 100.0 mg/kg/injection, schedule: Q04DX002 (ip), vehicle: saline with Tween-80 105 % of control | dose: 200.0 mg/kg/injection, schedule: Q04DX002 (ip), vehicle: saline with Tween-80 105 % of control | dose: 400.0 mg/kg/injection, schedule: Q04DX002 (ip), vehicle: saline with Tween-80 102 % of control

Nc1ncnc2c1nnn2C1CC(CO)C(O)C1O (stereo not given)
inactive: dose: 50.0 mg/kg/injection, schedule: Q04DX003 (ip), vehicle: other 112 % of control | dose: 67.0 mg/kg/injection, schedule: Q01DX009 (ip), vehicle: saline with Tween-80 122 % of control | dose: 67.0 mg/kg/injection, schedule: Q04DX003 (ip), vehicle: other 106 % of control | [11] 118 % of control | dose: 100.0 mg/kg/injection, schedule: Q04DX003 (ip), vehicle: other 114 % of control | dose: 150.0 mg/kg/injection, schedule: Q01DX009 (ip), vehicle: saline with Tween-80 118 % of control | dose: 150.0 mg/kg/injection, schedule: Q04DX003 (ip), vehicle: other 111 % of control | dose: 200.0 mg/kg/injection, schedule: Q04DX003 (ip), vehicle: other 123 % of control

CC(=O)CSc1nc2nccnc2[nH]1
inactive: dose: 25.0 mg/kg/injection, schedule: Q01DX009 (ip), vehicle: saline with Tween-80 110 % of control | dose: 50.0 mg/kg/injection, schedule: Q01DX009 (ip), vehicle: saline with Tween-80 110 % of control | [11] 104 % of control | dose: 200.0 mg/kg/injection, schedule: Q01DX009 (ip), vehicle: saline with Tween-80 104 % of control | dose: 400.0 mg/kg/injection, schedule: Q01DX009 (ip), vehicle: saline with Tween-80 107 % of control

CC(=O)C(N)CCC(=O)O (stereo not given)
inactive: dose: 100.0 mg/kg/injection, schedule: Q01DX009 (ip), vehicle: saline 106 % of control | [4] 97 % of control | dose: 200.0 mg/kg/injection, schedule: Q01DX009 (ip), vehicle: saline 101 % of control | [7] 97 % of control | dose: 400.0 mg/kg/injection, schedule: Q01DX009 (ip), vehicle: saline 95 % of control | [10] 94 % of control

NC(=O)C(NC(=O)c1ccccc1)SCc1ccccc1 (stereo not given)
inactive: dose: 25.0 mg/kg/injection, schedule: Q04DX002 (ip), vehicle: Klucel (hydroxypropylcellulose) (HPC) 98 % of control | dose: 50.0 mg/kg/injection, schedule: Q04DX002 (ip), vehicle: Klucel (hydroxypropylcellulose) (HPC) 95 % of control | dose: 100.0 mg/kg/injection, schedule: Q04DX002 (ip), vehicle: Klucel (hydroxypropylcellulose) (HPC) 95 % of control

CCCCCCCCCCCC(c1ccccc1)[N+](C)(C)C (stereo not given)
inactive: dose: 0.5 mg/kg/injection, schedule: Q01DX001 (ip), vehicle: saline 103 % of control | dose: 1.0 mg/kg/injection, schedule: Q01DX001 (ip), vehicle: saline 94 % of control | dose: 1.0 mg/kg/injection, schedule: Q01DX009 (ip), vehicle: saline 91 % of control | dose: 2.0 mg/kg/injection, schedule: Q01DX001 (ip), vehicle: saline 100 % of control | dose: 2.0 mg/kg/injection, schedule: Q01DX009 (ip), vehicle: saline 109 % of control | dose: 4.0 mg/kg/injection, schedule: Q01DX001 (ip), vehicle: saline 96 % of control | dose: 4.0 mg/kg/injection, schedule: Q01DX009 (ip), vehicle: saline 110 % of control | dose: 8.0 mg/kg/injection, schedule: Q01DX001 (ip), vehicle: saline 97 % of control

N=C(N)SCc1ccc(Cl)c(Cl)c1
inactive: dose: 50.0 mg/kg/injection, schedule: Q01DX003 (ip), vehicle: Klucel (hydroxypropylcellulose) (HPC) 106 % of control | dose: 100.0 mg/kg/injection, schedule: Q01DX003 (ip), vehicle: Klucel (hydroxypropylcellulose) (HPC) 101 % of control | [4] 102 % of control | [7] 89 % of control

O=C(c1ccccc1)C(C(NC1CCCCC1)c1ccccc1)N1CCCCC1 (stereo not given)
inactive: dose: 100.0 mg/kg/injection, schedule: Q01DX001 (ip), vehicle: Klucel (hydroxypropylcellulose) (HPC) 95 % of control | dose: 200.0 mg/kg/injection, schedule: Q01DX001 (ip), vehicle: Klucel (hydroxypropylcellulose) (HPC) 92 % of control | dose: 400.0 mg/kg/injection, schedule: Q01DX001 (ip), vehicle: Klucel (hydroxypropylcellulose) (HPC) 92 % of control

CSc1ccc(NC(=O)Nc2ccc(Cl)cc2Cl)cc1
inactive: [2] 93 % of control | [5] 88 % of control | [8] 88 % of control

O=C(CSc1ccc([N+](=O)[O-])cc1)c1ccc(Br)cc1
inactive: dose: 100.0 mg/kg/injection, schedule: Q01DX001 (ip), vehicle: saline 87 % of control | [4] 95 % of control | dose: 200.0 mg/kg/injection, schedule: Q01DX001 (ip), vehicle: saline 87 % of control | [7] 90 % of control | dose: 400.0 mg/kg/injection, schedule: Q01DX001 (ip), vehicle: saline 94 % of control | [10] 90 % of control

Cc1ccc(C)c(NC(=O)Oc2ccc(Br)cc2Br)c1
inactive: dose: 25.0 mg/kg/injection, schedule: Q01DX009 (ip), vehicle: Klucel (hydroxypropylcellulose) (HPC) 92 % of control | [1] 94 % of control | [3] 94 % of control | [5] 93 % of control and 114 % of control | [6] 87 % of control | [9] 110 % of control
